In patent EP0987275B1, “Molecules that home to a selected organ or tissue in vivo” (LA JOLLA CANCER RESEARCH FOUNDATION, priority 1995, dated 2008):
Where no end group is shown, it is not given here.

Tests used:
brain = test: In vivo panning of phage peptide display libraries, brain as the selected organ (kidney control); parameters: species or system mice; conditions: phage recovered from brain; for (% PHAGE): % of the 73 clones sequenced; for # PHAGE DISPLAYING SAME A.A. SEQUENCE: second and third rounds of in vivo panning, 73 cloned phage sequenced
Protocol: Phage display libraries were constructed using the fuse 5 vector as described by Koivunen et al. (supra, 1995; see, also, Koivunen et al. Meth. Enzymol. 245:346-369 (1994b), which is incorporated herein by reference). Six libraries encoding peptides designated CX5C (SEQ ID NO: 36), CX6C (SEQ ID NO: 37), CX7C (SEQ ID NO: 38), CX9 (SEQ ID NO: 39), X2CX14CX2 (SEQ ID NO: 40) and X2CX18 (SEQ ID NO: 41) were prepared, where "C" indicates cysteine and "XN" indicates the given number of individually selected amino acids. These libraries can display cyclic peptides when at least two cysteine residues are present in the peptide.
Oligonucleotides were constructed such that "C" was encoded by the codon TGT and "XN" was encoded by NNK, where "N" is equal molar mixtures of A, C, G and T, and where "K" is equal molar mixtures of G and T. Thus, the peptide represented by CX5C (SEQ ID NO: 36) can be represented by an oligonucleotide having the sequence TGT(NNK)5TGT (SEQ ID NO: 42). Oligonucleotides were made double stranded by 3 cycles of PCR amplification, purified and ligated to the nucleic acid encoding the gene III protein in the fuse 5 vector such that, upon expression, the peptide is present as a fusion protein at the N-terminus of the gene III protein.
The vectors were transfected by electroporation into MC1061 cells. Bacteria were cultured for 24 hr in the presence of 20 µg/ml tetracycline, then phage were collected from the supernatant by precipitation twice using polyethylene glycol. Each library contained about 5 x 10^9 to 5 x 10^14 transducing units (TU; individual recombinant phage).
(§1) A mixture of phage libraries containing 1 x 10^14 TU was diluted in 200 µl DMEM and injected into the tail vein of anesthetized BALB\c mice (2 month old females; Jackson Laboratories; Bar Harbor ME); Avertin™ (0.015 ml/g) was used as anesthetic (see Pasqualini and Ruoslahti, supra, 1996). After 1-4 minutes, mice were snap frozen in liquid nitrogen. To recover the phage, carcasses were partially thawed at room temperature for 1 hr, organs were collected and weighed, then were ground in 1 ml DMEM-PI (DMEM containing protease inhibitors (PI); phenylmethylsulfonyl fluoride (PMSF; 1 mM), aprotinin (20 µg/ml), leupeptin (1 µg/ml)).
(§2) Organ samples were washed 3 times with ice cold DMEM-PI containing 1% bovine serum albumin (BSA), then directly incubated with 1 ml K91-kan bacteria for 1 hr. Ten ml NZY medium containing […] tetracycline (NZY/tet) was added to the bacterial culture, the mixture was incubated in a 37°C shaker for 1 hr, then 200 µl aliquots were plated in agar plates containing 40 µg/ml tetracycline (tet/agar).
(§3) Individual colonies containing phage recovered from brain or kidney were grown for 16 hr in 5 ml NZY/tet. The bacterial cultures obtained from the individual colonies were pooled and the phage were purified and re-injected into mice as described above for a second round of in vivo panning. A third round of panning also was performed. Phage DNA was purified from individual bacterial colonies obtained from the second and the third round of in vivo panning and the DNA sequences encoding the peptides expressed by selected phage were determined (see Koivunen et al., supra, 1994b).
Three rounds of in vivo panning in mice were performed. Kidney was used as a control organ. Mice were injected with two different mixtures of phage libraries. The first mixture contained libraries encoding CX9 (SEQ ID NO: 39), CX5C (SEQ ID NO: 36), CX6C (SEQ ID NO: 37) and CX7C (SEQ ID NO: 38) peptides (CX5-7/CX9 mixture; SEQ ID NOS: 36-39). The second mixture contained libraries encoding X2CX14CX2 (SEQ ID NO: 40) and X2CX18 (SEQ ID NO: 41) peptides (X2CX18/X2CX14CX2 mixture; SEQ ID NOS: 40 and 41).
The phage library mixtures were administered to mice via tail vein injection. Phage input was […] of the CX5-7/CX9 (SEQ ID NOS: 36-39) mixture or 1 x 10^14 TU of the X2CX18/X2CX14CX2 (SEQ ID NOS: 40 and 41) mixture. […]

kidney = test: In vivo panning of phage peptide display libraries, kidney as the selected organ (brain control); parameters: species or system mice; conditions: phage recovered from kidney; for (% PHAGE): % of the 48 clones sequenced; for # PHAGE DISPLAYING SAME A.A. SEQUENCE: 48 cloned phage sequenced
Protocol: as §1, §2, §3
The same methodology used to isolate phage expressing brain homing peptides was used to isolate phage expressing peptides that home to kidney. In these experiments, brain was used as the control organ. A mixture of the CX5C (SEQ ID NO: 36) and the CX6C (SEQ ID NO: 37) libraries was administered as described above. Homing of phage to the kidney was obtained and an approximately 3x to 7x enrichment of phage homing to kidney was observed following a second round of in vivo panning.
The amino acid sequences were determined for the inserts in 48 cloned phage that homed to kidney. The peptides expressed by these phage were represented by two predominant sequences, CLPVASC (SEQ ID NO: 21; 46% of the clones sequenced) and CGAREMC (SEQ ID NO: 22; 17% of the clones; see Table 2). In addition, the peptide CKGRSSAC (SEQ ID NO: 23) appeared three times and three other peptides were present twice each.

[1] = system: B16B15b mouse melanoma cells; test: In vivo panning in mice bearing an implanted mouse melanoma tumor; parameters: species or system nude mice; conditions: phage recovered from B16B15b tumors; 89 cloned phage sequenced
Protocol: Mice bearing a melanoma were produced by implantation of B16B15b mouse melanoma cells, which produce highly vascularized tumors. B16B15b mouse melanoma cells were injected subcutaneously into the mammary fat pad of nude mice (2 months old) and tumors were allowed to grow until the diameter was about 1 cm. In vivo panning was performed as disclosed above. Approximately 1 x 10^12 transducing units of phage expressing the CX5C (SEQ ID NO: 36), CX6C (SEQ ID NO: 37) or […] library were injected, iv, and allowed to circulate for 4 min. Mice then were snap frozen in liquid nitrogen while under anesthesia, tumor tissue and brain (control organ) were removed, and phage were isolated as described above. Three rounds of in vivo panning were performed.
The amino acid sequences were determined for the inserts in 89 cloned phage recovered from the B16B15b tumors. The peptides expressed by these phage were represented by two predominant sequences, CLSGSLSC (SEQ ID NO: 55; 52% of the clones sequenced) and WGTGLC (SEQ ID NO: 52; 25% of the clones; see Table 4).

| Substance | (% PHAGE) (brain) | # PHAGE DISPLAYING SAME A.A. SEQUENCE (brain) | (% PHAGE) (kidney) | # PHAGE DISPLAYING SAME A.A. SEQUENCE (kidney) | further results |
| --- | --- | --- | --- | --- | --- |
| CANAQSHC (displayed on phage) [peptide from phage recovered from brain] | 1.4% | 1 | – | – | – |
| CETLPAC (displayed on phage) [peptide from phage recovered from brain] | 1.4% | 1 | – | – | – |
| CFVGHDLC (displayed on phage) [peptide from phage recovered from kidney] | – | – | 2.1% | 1 | – |
| CGNPSYRC (displayed on phage) [peptide from phage recovered from brain] | 1.4% | 1 | – | – | – |
| CGRSLDAC (displayed on phage) [peptide from phage recovered from brain] | 1.4% | 1 | – | – | – |
| CGVRLGC (displayed on phage) [peptide from phage recovered from brain] | 4.1% | 3 | – | – | – |
| CIEGVLGGC (cysteine pairing not given here; also: displayed on phage) [peptide from phage recovered from mouse B16B15b melanoma] | – | – | – | – | # clones [1]: 2; % of total phage [1]: 2% |
| CKDWGRIC (displayed on phage) [peptide from phage recovered from brain] | 2.8% | 2 | – | – | – |
| CKLLSGVC (displayed on phage) [peptide from phage recovered from kidney] | – | – | 2.1% | 1 | – |
| CKLMGEC (displayed on phage) [peptide from phage recovered from kidney] | – | – | 2.1% | 1 | – |
| CLDWGRIC (displayed on phage) [peptide from phage recovered from brain] | 2.8% | 2 | – | – | – |
| CLGRSSVC (displayed on phage) [peptide from phage recovered from kidney] | – | – | 4.2% | 2 | – |
| CLMGVHC (displayed on phage) [peptide from phage recovered from kidney] | – | – | 2.1% | 1 | – |
| CMGRWRLC (displayed on phage) [peptide from phage recovered from kidney] | – | – | 2.1% | 1 | – |
| CNSRLQLRC (displayed on phage) [peptide from phage recovered from brain] | 5.5% | 4 | – | – | – |
| CRCLNVC (displayed on phage) [peptide from phage recovered from kidney] | – | – | 2.1% | 1 | – |
| CRHWFDVVC (displayed on phage) [peptide from phage recovered from brain] | 1.4% | 1 | – | – | – |
| CRRFQDC (displayed on phage) [peptide from phage recovered from kidney] | – | – | 2.1% | 1 | – |
| CRTGTLFC (displayed on phage) [peptide from phage recovered from brain] | 1.4% | 1 | – | – | – |
| CSSTMRC (cysteine pairing not given here; also: displayed on phage) [peptide from phage recovered from mouse B16B15b melanoma] | – | – | – | – | # clones [1]: 2; % of total phage [1]: 2% |
| CTRITESC (displayed on phage) [peptide from phage recovered from brain] | 2.8% | 2 | – | – | – |
| CTSPGGSC (displayed on phage) [peptide from phage recovered from kidney] | – | – | 4.2% | 2 | – |
| CVAWLNC (displayed on phage) [peptide from phage recovered from kidney] | – | – | 2.1% | 1 | – |
| CVGECGGC (displayed on phage) [peptide from phage recovered from kidney] | – | – | 2.1% | 1 | – |
| CVLRGGRC (displayed on phage) [peptide from phage recovered from brain] | 6.8% | 5 | – | – | – |
| CWARAQGC (displayed on phage) [peptide from phage recovered from kidney] | – | – | 4.2% | 2 | – |
| LNCDYQGTNPATSVSVPCTV (displayed on phage) [peptide from phage recovered from brain] | 1.4% | 1 | – | – | – |
| YPCGGEAVAGVSSVRTMCSE (displayed on phage) [peptide from phage recovered from brain] | 1.4% | 1 | – | – | – |
